Data on seven compounds can be found in patent US20250098671A1, “CHITOSAN ENCAPSULATION OF OXYMATRINE AND TEA SAPONIN FOR USE IN PESTICIDAL ACTIVITY” (priority 2023, published 2025).

The test system of data set [1] is root-knot nematodes (Meloidogyne spp.). Put plainly: Nematocidal activity on hatched root-knot nematodes in Petri dish. The following applies: 15 nematodes; for Nematocidal efficiency (%): up to 3 days.
Method: The tomato roots infected with root-knot nematodes were washed with running water and were then cut to a size of about 1 cm, after which 50 g of the cut roots were placed in a 500 ml round-bottom flask containing 200 ml of 0.5% sodium hypochloride (NaOCl), stopped with a rubber stopper, and shaken vigorously for 3 min to sterilize the roots and at the same time burst the egg bag. Thereafter, the solution was passed through a sieve in which 200 mesh was superimposed on 500 mesh, and washed with distilled water, so the eggs of the root-knot nematodes from which the NaOCl solution was removed were recovered.
Next, the eggs of the root-knot nematodes thus recovered were surface-sterilized with 0.5% NaOCl for 10 min, washed thoroughly with sterile distilled water, placed in a phosphate buffer (1%) containing sterilized normal saline, and hatched in an incubator at 25° C.
Thereafter, each mixed solution was diluted to 2000 ppm, 2 to 3 ml thereof was poured into a Petri dish, after which 15 hatched root-knot nematodes were placed in the Petri dish, and nematocidal activity was measured and the results thereof are shown in Table 1 below.
The number of root-knot nematodes used for the experiment on the number of killed root-knot nematodes was 15 at each dilution factor.
The conditions of data set [2]: all the antioxidant assay systems; cited from earlier work.
For data set [3], the system named is mosquitos and midge (Ae. aegypti, Culex species mosquitoes, Anopheles species mosquitoes). Put plainly: Mosquito and midge adult activity. To be noted: 500 to 8,000 ppm. Format: in vivo.
The subject of data set [4] is plant. Put plainly: Plant phytotoxicity noted in development assessments.
The test system of data set [5] is black Sigatoka. The data set can be described thus: Black Sigatoka activity assessed in development of embodiments. To be noted: in vivo.
Data set [6] relates to tomato seedlings. The data set can be described thus: Phytotoxicity of geraniol, drenching treatment of potted tomato seedlings. Type of data set: in vivo. The following applies: for Phytotoxicity symptom / Extent of phytotoxicity (0-5): Tomato, 1 week after treatment; for Extent of phytotoxicity (0-5): 50 ml drench. An excerpt: Sterilized soil was uniformly mixed, 300 g thereof was then placed in each pot, and tomato seedlings not infected with root-knot nematodes were transplanted thereto.

The conditions of data set [7]: cited from earlier work.
In data set [8] the test system is root-knot nematodes (Meloidogyne spp.). The data set can be described thus: Nematocidal activity assessed in development of embodiments. Type of data set: in vivo. An excerpt:
Other embodiments may include the use of other monoterpene alcohols in place of geraniol. In some embodiments, a plant extract selected from the group consisting of a oxymatrine, neem extract, an Ostericum koreanum extract, Quillaja saponaria Molina and a clove extract may be added.

Data set [9] has as its system mildew, and anthracnose. Put plainly: Fungicide activity of Geraniol oil. To be noted: 500 to 4,000 ppm.
The test system of data set [10] is multiple insects. The data set can be described thus: Insecticidal activity on multiple insects. Type of data set: in vivo. The following applies: 500 to 6,000 ppm.
Data set [11] concerns Black Sigatoka. The data set can be described thus: Field trials against black Sigatoka in bananas. To be noted: applied as tank mixes with tea tree oil. Format: in vivo, Mycosphaerella fijiensis. An excerpt:
Fungicides are combined in mixtures mainly: to widen the spectrum of antifungal activity and to extend its duration; to exploit the synergistic interaction between the compounds, whereby the overall activity can be increased or the amounts used can be reduced without loss of activity; and to delay or reduce the emergence of resistant strains. […] Although in principle, combinations of synthetic antifungal compounds could be used to reduce the chemical load of any particular compound applied to crops, concerns about resistance development at lower doses have militated against their use as advised by the Fungicide Resistance Action Committee (FRAC).

The mark [12] stands for this setting: 2000 ppm dilution, mixed 1:1 with emulsifier PLE9.

On to `C/C=C(\C)C(=O)O[C@H]1C[C@@H](OC(C)=O)[C@@]2(C(=O)OC)CO[C@H]3[C@@H](O)[C@@](C)([C@]45O[C@@]4(C)[C@H]4C[C@@H]5O[C@@H]5OC=C[C@@]54O)[C@H]4[C@]1(CO[C@]4(O)C(=O)OC)[C@@H]32` [Azadirachtin, azadirachtin], for which, in [1] (setting [12]), the “number of killed root-knot nematodes, 1 day” value (“number … 1 day” below) came out at 7; the “number of killed root-knot nematodes, 2 days” value (from here on “number … 2 days”) is reported as 8; the “number of killed root-knot nematodes, 3 days” value (from here on “number … 3 days”) was found to be 10. Besides, the “Nematocidal efficiency (%)” value in data set [1] (2000 ppm dilution) was determined as 66.7%.
For the compound `O=c1c(O)c(-c2ccccc2)oc2cc(O)cc(O)c12` [Galangin, galangin], the antioxidant activity entry in data set [2] is “comparable activity with that of AEP and EEP”.
As for `CC(C)=CCC/C(C)=C/CO` [Geraniol, 3,7-dimethyl-2,6-octadien-1-ol], the “mosquito and midge control” value in [3] was “superior mosquito and midge control”. Also, the plant phytotoxicity entry in [4] (500 to 4,000 ppm) is given as “without plant phytotoxicity”; in data set [4] (4,500 ppm or more), “plant phytotoxicity was shown to occur”. Moreover, in [4] (500 to 8,000 ppm), the “plant phytotoxicity or water toxicology” value is on record as “without plant phytotoxicity or water toxicology”. For the same compound, the results for the “number … 1 day” value in data set [1] (setting [12]) and in data set [1] (Geraniol 2,000 ppm) were 15ª and 15, respectively. In addition, the “control of the black sigatoka fungus” value in [5] was “also effective against the fungus”. The “phytotoxicity symptoms in tomato seedlings” value was “all tomato seedlings collapsed and withered” in data set [6] (4000 ppm or more); “no particular phytotoxicity symptoms” in data set [6] (concentration range of 100 ppm to 3,000 ppm). Besides, the Phytotoxicity symptom result in [6] (Geraniol 100 ppm), in [6] (Geraniol 200 ppm), in data set [6] (Geraniol 330 ppm), in data set [6] (Geraniol 500 ppm), in [6] (Geraniol 1,000 ppm) and in [6] (Geraniol 2,000 ppm) was “No” each time. Besides, the Phytotoxicity symptom result in [6] (Geraniol 3,000 ppm) was “No”; in [6] (Geraniol 4,000 ppm), “Withered”; in [6] (Geraniol 5,000 ppm) it was “Withered”; in [6] (Geraniol 10,000 ppm), “Withered”; in data set [6] (Geraniol 20,000 ppm), “Withered”. The “Extent of phytotoxicity (0-5)” value in [6] (Geraniol 100 ppm), in data set [6] (Geraniol 200 ppm), in data set [6] (Geraniol 330 ppm), in data set [6] (Geraniol 500 ppm), in data set [6] (Geraniol 1,000 ppm) and in data set [6] (Geraniol 2,000 ppm) was 0 throughout. The “Extent of phytotoxicity (0-5)” value in data set [6] (Geraniol 3,000 ppm) came out at 0; in data set [6] (Geraniol 4,000 ppm), 5; in [6] (Geraniol 5,000 ppm), 5; in [6] (Geraniol 10,000 ppm), 5; in data set [6] (Geraniol 20,000 ppm), 5. In addition, in [7] (most common organic solvents), the “solubility in organic solvents” value is on record as “soluble in most common organic solvents”. Moreover, the solubility in water entry in [7] (water) was “insoluble in water”. In addition, in data set [8] (500 to 4,000 ppm), the nematocidal control result was “superior nematocidal control”. Besides, in [8] (utilized alone), the nematocidal activity result is “superior nematocidal activity”. Moreover, the fungicidal control entry in data set [9] was “superior fungicidal control”.
Turning to `O=C1CCC[C@@H]2[C@H]3CCC[N+]4([O-])CCC[C@@H](CN12)[C@@H]34` (stereo partly shown) [Oxymatrine, oxymatrine], in data set [4] (500 to 6,000 ppm), the plant phytotoxicity result is listed as “without plant phytotoxicity”. Also, in data set [1] (setting [12]), the “number … 1 day” value came out at 7; the “number … 2 days” value is given as 9; the “number … 3 days” value is reported as 10. In addition, the insecticidal control result in [10] is “superior insecticidal control”.
As to `CC1COC(Cn2cncn2)(c2ccc(Oc3ccc(Cl)cc3)cc2Cl)O1` (stereo not shown) [difenoconazole], in data set [11], the “control of Black Sigatoka” value was “effectively controlled Black Sigatoka”.
The same measure, in the same setting: the same measure for `CON=C(C(=O)OC)c1ccccc1CON=C(C)c1cccc(C(F)(F)F)c1` [trifloxystrobin]: “effectively controlled Black Sigatoka”.
With pyrethrin, in data set [1] (setting [12]), the “number … 1 day” value amounted to 5; the “number … 2 days” value came to 6; the “number … 3 days” value is on record as 11. Further, the “Nematocidal efficiency (%)” value in data set [1] (2000 ppm dilution) is recorded as 73.3%.
